Data reported in the supplement of paper PMC11061612.

Columns and labels:
[1] = compound: O=C(c1cc(Cc2n[nH]c(=O)c3ccccc23)ccc1F)N1CCN(C(=O)C2CC2)CC1 [Olaparib]; conditions: max 10 µM
Method in brief: (§1)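 After 24 hours at 37°C and 5% CO2 in 1536-well plates holding 7.5 μl of DMEM/F12 or RPMI with 10% FBS, cancer cell lines were dosed for 72 hours, with final DMSO typically 0.2%. Viability came from CellTiter-Glo 2.0 luminescence, scaled between the means of blank wells and DMSO wells. A non-linear mixed effects model fitted a two-parameter logistic curve to each dose response to give the single-agent IC50.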

[2] = compound: C1CN(CCC1(C(=O)N[C@@H](CCO)C2=CC=C(C=C2)Cl)N)C3=NC=NC4=C3C=CN4 [AZD5363]; conditions: max 10 µM
Method in brief: as §1

[3] = compound: CC1=C(C(=CC=C1)Cl)NC(=O)C2=CN=C(S2)NC3=CC(=NC(=N3)C)N4CCN(CC4)CCO [Dasatinib]; conditions: max 2 µM
Method in brief: as §1

[4] = compound: CC(C)n1c(=O)n(C)c2cnc3cc(F)c(-c4ccc(OCCCN5CCCCC5)nc4)cc3c21 [AZD1390]; conditions: max 0.3 µM
Method in brief: as §1

[5] = compound: COc1nnc2ccc(N3CCC(c4ccc(OCCN5CCN(C)C(=O)[C@H]5C)cc4)CC3)nn12 [AZD5153]; conditions: max 1 µM
Method in brief: as §1

[6] = compound: COc1cc(Nc2ncc3c(n2)-c2ccc(Cl)cc2C(c2c(F)cccc2OC)=NC3)ccc1C(=O)O [Alisertib]; conditions: max 10 µM
Method in brief: as §1

[7] = compound: NC1(c2ccc(-c3nc4ccn5c(=O)[nH]nc5c4cc3-c3ccccc3)cc2)CCC1 [MK-2206]; conditions: max 10 µM
Method in brief: as §1

[8] = compound: CN(C)CCCOc1ccc(-c2ccc3ncc4c(c3c2)n(C2CCOCC2)c(=O)n4C)cn1 [AZD0156]; conditions: max 3 µM
Method in brief: as §1

[9] = compound: N#Cc1cnc(Nc2cc(NC[C@H]3CNCCO3)c(C(F)(F)F)cn2)cn1 [SRA737]; conditions: max 10 µM
Method in brief: as §1

[10] = compound: Cc1cc2ncnn2cc1Nc1ncc2c(n1)n(C1CCOCC1)c(=O)n2C [AZD7648]; conditions: max 10 µM
Method in brief: as §1

[11] = compound: C1CC(C1)(C(=O)[O-])C(=O)[O-].N.N.[Pt+2] [Carboplatin]; conditions: max 10 µM
Method in brief: as §1

[12] = compound: COc1cccc(OCCCN)c1-c1cc(Nc2cnc(C#N)cn2)n[nH]1 [Prexasertib]; conditions: max 1 µM
Method in brief: as §1

[13] = compound: O=C(Nc1ccc2[nH]nc(-c3ccncc3)c2c1)[C@@H]1CCN(CC(=O)N2CCN(c3ccc(-c4ncccn4)cc3)CC2)C1; conditions: max 5 µM
Method in brief: as §1

[14] = compound: C=CCn1c(=O)c2cnc(Nc3ccc(N4CCN(C)CC4)cc3)nc2n1-c1cccc(C(C)(C)O)n1 [AZD1775]; conditions: max 3 µM
Method in brief: as §1

[15] = compound: CC1(C)CCC(CN2CCN(c3ccc(C(=O)NS(=O)(=O)c4ccc(NCC5CCOCC5)c([N+](=O)[O-])c4)c(Oc4cnc5[nH]ccc5c4)c3)CC2)=C(c2ccc(Cl)cc2)C1 [Venetoclax]; conditions: max 1 µM
Method in brief: as §1

[16] = compound: Cn1cnc2c(F)c(Nc3ccc(Br)cc3Cl)c(C(=O)NOCCO)cc21 [Selumetinib]; conditions: max 10 µM
Method in brief: as §1

[17] = compound: CS(=O)(=O)CCNCc1ccc(-c2ccc3ncnc(Nc4ccc(OCc5cccc(F)c5)c(Cl)c4)c3c2)o1 [Lapatinib]; conditions: max 10 µM
Method in brief: as §1

[18] = compound: CC(=O)c1c(C)c2cnc(Nc3ccc(N4CCNCC4)cn3)nc2n(C2CCCC2)c1=O [Palbociclib]; conditions: max 10 µM
Method in brief: as §1

[19] = compound: Nc1ccn([C@@H]2O[C@H](CO)[C@@H](O)C2(F)F)c(=O)n1 [Gemcitabine]; conditions: max 0.3 µM
Method in brief: as §1

[20] = compound: C[C@@H](Oc1cc(-c2cnn(C3CCNCC3)c2)cnc1N)c1c(Cl)ccc(F)c1Cl [Crizotinib]; conditions: max 10 µM
Method in brief: as §1

[21] = compound: O=c1[nH]cc(F)c(=O)[nH]1 [5-Fluorouracil]; conditions: max 20 µM
Method in brief: as §1

[22] = compound: Cc1c2c(nn1C)CSCc1cc(n(C)n1)CSc1cc(c3ccccc3c1)OCCCc1c(C(=O)O)n(C)c3c-2c(Cl)ccc13 [AZD5991]; conditions: max 1 µM
Method in brief: as §1

[23] = compound: CN(CC[C@H](CSC1=CC=CC=C1)NC2=C(C=C(C=C2)S(=O)(=O)NC(=O)C3=CC=C(C=C3)N4CCC(CC4)[C@H](C5=CC=CC=C5C6=CC=C(C=C6)Cl)O)S(=O)(=O)C(F)(F)F)CCO [AZD4320]; conditions: max 1 µM
Method in brief: as §1

[24] = compound: CC(=O)Nc1cccc(-n2c(=O)n(C3CC3)c(=O)c3c(Nc4ccc(I)cc4F)n(C)c(=O)c(C)c32)c1 [Trametinib]; conditions: max 1 µM
Method in brief: as §1

[25] = compound: C[C@@H](c1ccc2nccn2c1)n1nnc2ncc(-c3cnn(C)c3)nc21 [Savolitinib]; conditions: max 1 µM
Method in brief: as §1

[26] = compound: CCN(CCO)CCCOc1ccc2c(Nc3cc(CC(=O)Nc4cccc(F)c4)[nH]n3)ncnc2c1 [AZD2811]; conditions: max 1 µM
Method in brief: as §1

[27] = compound: C[C@@H]1COCCN1C2=NC(=NC(=C2)C3(CC3)[S@](=N)(=O)C)C4=C5C=CNC5=NC=C4 [AZD6738]; conditions: max 10 µM
Method in brief: as §1

[28] = compound: CC(=O)O[C@H]1C(=O)[C@@]2(C)[C@H]([C@H](OC(=O)c3ccccc3)[C@]3(O)C[C@H](OC(=O)[C@H](O)[C@@H](NC(=O)c4ccccc4)c4ccccc4)C(C)=C1C3(C)C)[C@]1(OC(C)=O)CO[C@@H]1C[C@@H]2O [Paclitaxel]; conditions: max 3 µM
Method in brief: as §1

[29] = compound: COc1cc([C@@H]2c3cc4c(cc3[C@@H](O[C@@H]3O[C@@H]5CO[C@@H](C)O[C@H]5[C@H](O)[C@H]3O)[C@H]3COC(=O)[C@H]23)OCO4)cc(OC)c1O [Etoposide]; conditions: max 10 µM
Method in brief: as §1

[30] = compound: COc1cccc2c1C(=O)c1c(O)c3c(c(O)c1C2=O)C[C@@](O)(C(=O)CO)C[C@@H]3O[C@H]1C[C@H](N)[C@H](O)[C@H](C)O1 [Doxorubicin]; conditions: max 1 µM
Method in brief: as §1

[31] = compound: Cc1nc(-c2cn3c(n2)-c2ccc(-c4cnn(C(C)(C)C(N)=O)c4)cc2OCC3)n(C(C)C)n1 [Taselisib]; conditions: max 10 µM
Method in brief: as §1

[32] = compound: CCc1c2c(nc3ccc(O)cc13)-c1cc3c(c(=O)n1C2)COC(=O)[C@]3(O)CC [SN-38]; conditions: max 0.3 µM
Method in brief: as §1

[33] = compound: C[C@@H](Nc1cc(F)cc(F)c1)c1cc(C(=O)N(C)C)cc2c(=O)cc(N3CCOCC3)oc12 [AZD8186]; conditions: max 10 µM
Method in brief: as §1

[34] = compound: CC1=CN2[C@@H](C1)C=NC3=CC(=C(C=C3C2=O)OC)OCCCCCOC4=C(C=C5C(=C4)N=C[C@@H]6CC(=CN6C5=O)C)OC [SG3199]; conditions: max 0.001 µM
Method in brief: as §1

[35] = compound: COc1cc2ncnc(Nc3ccc(F)c(Cl)c3)c2cc1OCCCN1CCOCC1 [Gefitinib]; conditions: max 10 µM
Method in brief: as §1

Cell Line | IC50, cell viability 72 h [1] [nM] | IC50, cell viability 72 h [2] [nM] | IC50, cell viability 72 h [3] [nM] | IC50, cell viability 72 h [4] [nM] | IC50, cell viability 72 h [5] [nM] | IC50, cell viability 72 h [6] [nM] | IC50, cell viability 72 h [7] [nM] | IC50, cell viability 72 h [8] [nM] | IC50, cell viability 72 h [9] [nM] | IC50, cell viability 72 h [10] [nM] | IC50, cell viability 72 h [11] [nM] | IC50, cell viability 72 h [12] [nM] | IC50, cell viability 72 h [13] [nM] | IC50, cell viability 72 h [14] [nM] | IC50, cell viability 72 h [15] [nM] | IC50, cell viability 72 h [16] [nM] | IC50, cell viability 72 h [17] [nM] | IC50, cell viability 72 h [18] [nM] | IC50, cell viability 72 h [19] [nM] | IC50, cell viability 72 h [20] [nM] | IC50, cell viability 72 h [21] [nM] | IC50, cell viability 72 h [22] [nM] | IC50, cell viability 72 h [23] [nM] | IC50, cell viability 72 h [24] [nM] | IC50, cell viability 72 h [25] [nM] | IC50, cell viability 72 h [26] [nM] | IC50, cell viability 72 h [27] [nM] | IC50, cell viability 72 h [28] [nM] | IC50, cell viability 72 h [29] [nM] | IC50, cell viability 72 h [30] [nM] | IC50, cell viability 72 h [31] [nM] | IC50, cell viability 72 h [32] [nM] | IC50, cell viability 72 h [33] [nM] | IC50, cell viability 72 h [34] [nM] | IC50, cell viability 72 h [35] [nM]
SW1088 (Low Grade Glioma) | > 10000 | 6480 | 283 | > 300 | > 1000 | 807 | > 10000 | > 3000 | > 10000 | > 10000 | > 10000 | 129 | > 5000 | 2040 | > 1000 | > 10000 | > 10000 | > 10000 | > 300 | > 10000 | > 20000 | > 1000 | > 1000 | > 1000 | > 1000 | > 1000 | 9510 | 29.1 | > 10000 | > 1000 | 4280 | > 300 | 1740 | > 1 | > 10000
SW1783 (Low Grade Glioma) | > 10000 | > 10000 | > 2000 | > 300 | > 1000 | 8540 | > 10000 | > 3000 | > 10000 | > 10000 | > 10000 | > 1000 | > 5000 | 1410 | > 1000 | > 10000 | > 10000 | > 10000 | 121 | > 10000 | > 20000 | > 1000 | > 1000 | > 1000 | > 1000 | > 1000 | > 10000 | 407 | > 10000 | > 1000 | 5980 | 45.2 | 8000 | > 1 | > 10000
SW1990 (Pancreatic Carcinoma) | > 10000 | > 10000 | > 2000 | > 300 | > 1000 | > 10000 | > 10000 | > 3000 | 9750 | > 10000 | > 10000 | 49.9 | > 5000 | > 3000 | > 1000 | > 10000 | > 10000 | > 10000 | > 300 | > 10000 | > 20000 | > 1000 | > 1000 | > 1000 | > 1000 | > 1000 | > 10000 | > 3000 | > 10000 | > 1000 | > 10000 | > 300 | > 10000 | > 1 | > 10000
TE-5 (Esophageal Squamous Cell Carcinoma) | > 10000 | > 10000 | > 2000 | > 300 | > 1000 | > 10000 | > 10000 | > 3000 | > 10000 | > 10000 | > 10000 | 884 | > 5000 | > 3000 | > 1000 | > 10000 | > 10000 | > 10000 | 71.4 | > 10000 | > 20000 | > 1000 | > 1000 | > 1000 | > 1000 | > 1000 | > 10000 | 79.8 | > 10000 | > 1000 | 2040 | 55.8 | > 10000 | > 1 | > 10000
U-266 (Plasma Cell Myeloma) | > 10000 | > 10000 | > 2000 | > 300 | > 1000 | 9540 | > 10000 | > 3000 | > 10000 | > 10000 | > 10000 | 50.6 | 4960 | 1030 | > 1000 | > 10000 | > 10000 | > 10000 | 131 | > 10000 | > 20000 | 219 | 841 | 225 | > 1000 | > 1000 | > 10000 | 10.2 | > 10000 | > 1000 | > 10000 | > 300 | > 10000 | > 1 | > 10000
